Source: the NIST ThermoML archive (doi:10.1021/je050296u)
± gives the expanded uncertainty stated by the source.

test: mn = molality of the nth substance listed, in mol/kg; conditions: 298.15 K; 101.33 kPa; Liquid; Calvet calorimetry; m1 = 0.1

First: NCC(=O)O [2-aminoacetic acid] + O
Second: C[C@H](N)C(=O)O [(S)-2-aminopropanoic acid] + O
The apparent molar enthalpy of the first is higher: 14.2 ± 0.24 kJ/mol for the first, 7.57 ± 0.15 kJ/mol for the second.

With `N[C@@H](CO)C(=O)O` [L-serine] + O the apparent molar enthalpy was 11.3 ± 0.2 kJ/mol.
